# Key:
# Format in all cases: cell-based
# E. coli DH5α = test: Antibacterial activity: MIC and growth curve against E. coli DH5α in 96-well plate; conditions: minimal inhibitory concentration against E. coli DH5α; 96-well plate, 5×10^5 CFU/mL, 37° C., judged after 8 h
# In short: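 Log-phase DH5α (OD600 about 0.5, 37° C, 185 rpm in LB) was pelleted, resuspended in fresh LB and seeded at 5×10^5 CFU/mL with recombinant protein at 50, 25 and 12.5 μg/mL (two-fold series), in triplicate. Plates were shaken at 175 rpm, 37° C, and OD600 was read every 30 min. MIC was the lowest concentration with no growth.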
# E. coli BL21 = test: MIC against Gram-negative bacteria: E. coli BL21
# In short: (§1)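 Two-fold serial dilutions of each purified human EGF domain protein, three replicate wells per level, were combined with bacteria at a final 5×10^5 CFU/mL in LB. Cultures were shaken at 175 rpm, 37° C. The MIC was taken as the minimum concentration preventing growth.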
# Pseudomonas aeruginosa = test: MIC against Gram-negative bacteria: Pseudomonas aeruginosa
# In short: as §1
# Klebsiella pneumonia = test: MIC against Gram-negative bacteria: Klebsiella pneumonia
# In short: as §1
# Enterobacter cloacae = test: MIC against Gram-negative bacteria: Enterobacter cloacae
# In short: as §1
# Aeromonas hydrophila = test: MIC against Gram-negative bacteria: Aeromonas hydrophila
# In short: as §1
# Citrobacter diversus = test: MIC against Gram-negative bacteria: Citrobacter diversus
# In short: as §1
# Moraxella catarrhalis = test: MIC against Gram-negative bacteria: Moraxella catarrhalis
# In short: as §1
# Proteus mirabilis = test: MIC against Gram-negative bacteria: Proteus mirabilis
# In short: as §1
# Proteus vulgaris = test: MIC against Gram-negative bacteria: Proteus vulgaris
# In short: as §1
# Serratia marcescens = test: MIC against Gram-negative bacteria: Serratia marcescens
# In short: as §1
# [1] = E. coli BL21, 10 h cultivation at 37° C., 5×10^5 CFU/mL
# [2] = P. aeruginosa, 10 h cultivation at 37° C., 5×10^5 CFU/mL
# [3] = K. pneumonia, 10 h cultivation at 37° C., 5×10^5 CFU/mL
# [4] = E. cloacae, 10 h cultivation at 37° C., 5×10^5 CFU/mL
# [5] = A. hydrophila, 10 h cultivation at 37° C., 5×10^5 CFU/mL
# [6] = C. diversus, 10 h cultivation at 37° C., 5×10^5 CFU/mL
# [7] = M. catarrhalis, 10 h cultivation at 37° C., 5×10^5 CFU/mL
# [8] = P. mirabilis, 10 h cultivation at 37° C., 5×10^5 CFU/mL
# [9] = P. vulgaris, 10 h cultivation at 37° C., 5×10^5 CFU/mL
# [10] = S. marcescens, 10 h cultivation at 37° C., 5×10^5 CFU/mL
# [11] = 96-well plate, 5×10^5 CFU/mL, 37° C., 10 h
substance,measurement,setting,value
PRT425 (DVDECAMGTHTCQPGFLCQNTKGSFYCQARQRCMDGFLQDPEGNCV; listed as Homo sapiens),MIC,E. coli DH5α,12.5 µg/mL
same,MIC,E. coli BL21; [1],25 µg/mL
same,MIC,Pseudomonas aeruginosa; [2],50 µg/mL
same,MIC,Klebsiella pneumonia; [3],25 µg/mL
same,MIC,Enterobacter cloacae; [4],12.5 µg/mL
same,MIC,Aeromonas hydrophila; [5],25 µg/mL
same,MIC,Citrobacter diversus; [6],50 µg/mL
same,MIC,Moraxella catarrhalis; [7],12.5 µg/mL
same,MIC,Proteus mirabilis; [8],50 µg/mL
same,MIC,Proteus vulgaris; [9],12.5 µg/mL
same,MIC,Serratia marcescens; [10],50 µg/mL
PRT1030 (DVDECSENRCHPAATCYNTPGSFSCRCQPGYYGDGFQCI; listed as Homo sapiens),MIC,E. coli DH5α,25 µg/mL
same,MIC,"E. coli BL21; E. coli BL21, 10 h cultivation at 37° C.",12.5 µg/mL
same,MIC,"Pseudomonas aeruginosa; P. aeruginosa, 10 h cultivation at 37° C.",50 µg/mL
same,MIC,"Klebsiella pneumonia; K. pneumonia, 10 h cultivation at 37° C.",12.5 µg/mL
same,MIC,"Enterobacter cloacae; E. cloacae, 10 h cultivation at 37° C.",50 µg/mL
same,MIC,"Aeromonas hydrophila; A. hydrophila, 10 h cultivation at 37° C.",25 µg/mL
same,MIC,"Citrobacter diversus; C. diversus, 10 h cultivation at 37° C.",50 µg/mL
same,MIC,"Moraxella catarrhalis; M. catarrhalis, 10 h cultivation at 37° C.",12.5 µg/mL
same,MIC,"Proteus mirabilis; P. mirabilis, 10 h cultivation at 37° C.",50 µg/mL
same,MIC,"Proteus vulgaris; P. vulgaris, 10 h cultivation at 37° C.",12.5 µg/mL
same,MIC,"Serratia marcescens; S. marcescens, 10 h cultivation at 37° C.",50 µg/mL
PRT738 (FHTRCEEDNGGCSHLCLLSPSEPFYTCACPTGVQLQDNGRTCK; listed as Homo sapiens),MIC,E. coli DH5α,50 µg/mL
same,MIC E. coli BL21,E. coli BL21; [11],12.5 µg/mL
same,MIC P. aeruginosa,Pseudomonas aeruginosa; [11],25 µg/mL
same,MIC K. pneumonia,Klebsiella pneumonia; [11],50 µg/mL
same,MIC E. cloacae,Enterobacter cloacae; [11],12.5 µg/mL
same,MIC A. hydrophila,Aeromonas hydrophila; [11],50 µg/mL
same,MIC C. diversus,Citrobacter diversus; [11],12.5 µg/mL
same,MIC M. catarrhalis,Moraxella catarrhalis; [11],25 µg/mL
same,MIC P. mirabilis,Proteus mirabilis; [11],50 µg/mL
same,MIC P. vulgaris,Proteus vulgaris; [11],25 µg/mL
same,MIC S. marcescens,Serratia marcescens; [11],25 µg/mL
PRT889 (DVNECVSNPCQNDATCLDQIGEFQCICMPGYEGVHCE; listed as Homo sapiens),MIC,E. coli DH5α,25 µg/mL
same,MIC (μg/mL) E. coli BL21,E. coli BL21; [1],12.5 µg/mL
same,MIC (μg/mL) P. aeruginosa,Pseudomonas aeruginosa; [2],25 µg/mL
same,MIC (μg/mL) K. pneumonia,Klebsiella pneumonia; [3],12.5 µg/mL
same,MIC (μg/mL) E. cloacae,Enterobacter cloacae; [4],12.5 µg/mL
same,MIC (μg/mL) A. hydrophila,Aeromonas hydrophila; [5],12.5 µg/mL
same,MIC (μg/mL) C. diversus,Citrobacter diversus; [6],12.5 µg/mL
same,MIC (μg/mL) M. catarrhalis,Moraxella catarrhalis; [7],12.5 µg/mL
same,MIC (μg/mL) P. mirabilis,Proteus mirabilis; [8],25 µg/mL
same,MIC (μg/mL) P. vulgaris,Proteus vulgaris; [9],12.5 µg/mL
same,MIC (μg/mL) S. marcescens,Serratia marcescens; [10],25 µg/mL
PRT1372 (GSRRCPGDCRGHGLCEDGVCVCDAGYSGEDC; listed as Homo sapiens),MIC,E. coli DH5α,12.5 µg/mL
same,MIC against E. coli BL21,"E. coli BL21; E. coli BL21, 5×10^5 CFU/mL, 10 h cultivation at 37° C.",25 µg/mL
same,MIC against P. aeruginosa,"Pseudomonas aeruginosa; Pseudomonas aeruginosa, 5×10^5 CFU/mL, 10 h cultivation at 37° C.",12.5 µg/mL
same,MIC against K. pneumonia,"Klebsiella pneumonia; Klebsiella pneumonia, 5×10^5 CFU/mL, 10 h cultivation at 37° C.",25 µg/mL
same,MIC against E. cloacae,"Enterobacter cloacae; Enterobacter cloacae, 5×10^5 CFU/mL, 10 h cultivation at 37° C.",12.5 µg/mL
same,MIC against A. hydrophila,"Aeromonas hydrophila; Aeromonas hydrophila, 5×10^5 CFU/mL, 10 h cultivation at 37° C.",25 µg/mL
same,MIC against C. diversus,"Citrobacter diversus; Citrobacter diversus, 5×10^5 CFU/mL, 10 h cultivation at 37° C.",12.5 µg/mL
same,MIC against M. catarrhalis,"Moraxella catarrhalis; Moraxella catarrhalis, 5×10^5 CFU/mL, 10 h cultivation at 37° C.",25 µg/mL
same,MIC against P. mirabilis,"Proteus mirabilis; Proteus mirabilis, 5×10^5 CFU/mL, 10 h cultivation at 37° C.",12.5 µg/mL
same,MIC against P. vulgaris,"Proteus vulgaris; Proteus vulgaris, 5×10^5 CFU/mL, 10 h cultivation at 37° C.",25 µg/mL
same,MIC against S. marcescens,"Serratia marcescens; Serratia marcescens, 5×10^5 CFU/mL, 10 h cultivation at 37° C.",12.5 µg/mL
PRT494 (CNCSLVGSTHHRCDVVTGHCQCKSKFGGRACDQCSLGYRDFPDCVP; listed as Homo sapiens),MIC,E. coli DH5α,50 µg/mL
same,MIC against E. coli BL21,E. coli BL21; [11],25 µg/mL
same,MIC against P. aeruginosa,Pseudomonas aeruginosa; [11],12.5 µg/mL
same,MIC against K. pneumonia,Klebsiella pneumonia; [11],25 µg/mL
same,MIC against E. cloacae,Enterobacter cloacae; [11],50 µg/mL
same,MIC against A. hydrophila,Aeromonas hydrophila; [11],25 µg/mL
same,MIC against C. diversus,Citrobacter diversus; [11],12.5 µg/mL
same,MIC against M. catarrhalis,Moraxella catarrhalis; [11],25 µg/mL
same,MIC against P. mirabilis,Proteus mirabilis; [11],50 µg/mL
same,MIC against P. vulgaris,Proteus vulgaris; [11],25 µg/mL
same,MIC against S. marcescens,Serratia marcescens; [11],12.5 µg/mL
PRT622 (CNCNPMGSEPVGCRSDGTCVCKPGFGGPNC; listed as Homo sapiens),MIC,E. coli DH5α,25 µg/mL
same,MIC E. coli BL21,E. coli BL21; [11],50 µg/mL
same,MIC P. aeruginosa,Pseudomonas aeruginosa; [11],25 µg/mL
same,MIC K. pneumonia,Klebsiella pneumonia; [11],50 µg/mL
same,MIC E. cloacae,Enterobacter cloacae; [11],25 µg/mL
same,MIC A. hydrophila,Aeromonas hydrophila; [11],12.5 µg/mL
same,MIC C. diversus,Citrobacter diversus; [11],50 µg/mL
same,MIC M. catarrhalis,Moraxella catarrhalis; [11],12.5 µg/mL
same,MIC P. mirabilis,Proteus mirabilis; [11],50 µg/mL
same,MIC P. vulgaris,Proteus vulgaris; [11],12.5 µg/mL
same,MIC S. marcescens,Serratia marcescens; [11],12.5 µg/mL

# From US9833497B2, “Human originated EGF domain proteins and use of the same” (CHENGDU SOURCEBIO LIMITED-LIABILITY COMPANY, priority 2013, dated 2017)
